This note sets out measurements from patent publication US12410155B2, “Salt form and crystal form of tetrahydrocyclohepta indazole compound” (Zhejiang Yangli Pharmaceutical Technology Co., Ltd., priority 2021, dated 2025).

The target of assay [1] is T1, ERα (Homo sapiens, UniProt P03372).
T1 construct: degradation effects on ERα in various breast cancer cell lines; endogenous in cells; host or cells: MCF-7, T-47D, CAMA-1
T1 sequence (P03372 1-595): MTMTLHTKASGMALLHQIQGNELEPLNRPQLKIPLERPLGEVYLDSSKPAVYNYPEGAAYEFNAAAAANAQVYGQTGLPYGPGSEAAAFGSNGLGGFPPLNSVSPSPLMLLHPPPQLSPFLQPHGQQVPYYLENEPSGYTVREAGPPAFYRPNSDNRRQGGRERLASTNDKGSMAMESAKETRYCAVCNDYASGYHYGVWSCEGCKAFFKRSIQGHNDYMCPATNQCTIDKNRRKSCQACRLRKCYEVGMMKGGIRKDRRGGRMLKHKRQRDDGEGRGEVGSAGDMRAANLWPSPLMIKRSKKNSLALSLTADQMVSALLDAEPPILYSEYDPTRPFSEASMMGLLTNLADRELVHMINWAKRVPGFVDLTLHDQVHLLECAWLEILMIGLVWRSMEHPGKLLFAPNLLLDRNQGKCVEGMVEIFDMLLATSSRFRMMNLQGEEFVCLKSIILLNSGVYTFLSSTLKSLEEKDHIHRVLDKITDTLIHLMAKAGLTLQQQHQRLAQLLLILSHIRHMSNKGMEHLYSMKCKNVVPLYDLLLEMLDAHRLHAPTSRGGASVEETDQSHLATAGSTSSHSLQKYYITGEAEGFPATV
The assay can be described thus: ERα degradation assay (ICW) in MCF-7, T-47D and CAMA-1 cells. As to conditions: 4 hours, read-out: IC50 (nM), degradation effect on ERα. The format is cell-based. As for the experimental part:
(3) ERα Degradation Assay in MCF-7, T-47D, and CAMA-1 Cells
• 1) The complete culture medium was aspirated from the culture flask, followed by the addition of an appropriate amount of trypsin for rinsing. The trypsin solution was then aspirated to remove residual serum. • 2) Subsequently, an appropriate amount of trypsin was added for a second rinse and aspirated. The culture flask was placed in an incubator for 2-3 minutes, then removed, and gently agitated to detach the cells. • 3) The cells were resuspended in fresh complete culture medium and counted using a cell counter. • 4) The cell suspension was prepared according to the required plating density. • 5) A volume of 30.0 μL of the cell suspension was added to each well of a 384-well plate. • 6) The experimental plate was placed in a centrifuge and centrifuged at 1000 rpm for 1 minute. • 7) The experimental plate was then incubated overnight in a cell incubator. • 8) According to the sample addition diagram of experimental plate (refer to 3.5.1), 20.0 μL of the diluted test sample was added to each well. […] The plate was incubated at 4° C. overnight. • 19) The primary antibody solution in the plate was discarded, and the plate was washed five times with PBS using a multidrop. • 20) A mixture of 25 μL of secondary antibody and DRAQ5 was added to each well, and incubated at room temperature for 1 hour. • 21) The plate was washed five times with PBS using a multidrop. • 22) The plate was washed with ddH2O twice, and patted dry. • 23) The plate was subsequently read using the Odyssey infrared imaging system. […]
The IC50 values were calculated using GraphPad Prism 7.0, a data analysis software.
This experiment evaluated the effect of compound of formula (I) on the expression of ERα protein in MCF-7, T-47D, and CAMA-1 cells. The expression levels of ERα protein were detected using the ICW assay after 4 hours of drug treatment.

Assay [2] deals with human breast cancer MCF-7 cell subcutaneous xenograft tumor. The assay is classed as in vivo. The conditions noted are these: PO, QD; for T/C (%) / TGI (%) / Tumor volume (mm^3) (Day 21): Day 21; for Tumor volume (mm^3) (Day 21): listed as compound (I). As for the experimental part:
(1) In Vivo Pharmacodynamic Study of Breast Cancer MCF-7 Cell Subcutaneous Xenograft Tumor BALB/c Nude Mouse Model
Objective: This study aimed to evaluate the in vivo efficacy of the crystal form C of the compound of formula (I) using a human breast cancer MCF-7 cell subcutaneous xenograft tumor model in nude mice.
Routine digestion with trypsin-EDTA (Gibco) was performed twice a week for passaging.
Cell inoculation: Estrogen pellets (0.36 mg/pellet; IRA) were subcutaneously inoculated into the left dorsum of each mouse. Three days later, 0.2 mL (1×10^7 cells) of MCF-7 cells (mixed with Matrigel; CORNING, volume ratio 1:1) were subcutaneously inoculated into the right dorsum of each mouse. When the average tumor volume reached 188 mm^3, the mice were grouped and the administration of compounds began.
An appropriate amount of the compound of formula (I) was weighed and prepared into 0.1, 0.3, 1, and 3 mg/mL solutions. […] Fulvestrant was used as the commercially available injection Faslodex.
The antitumor efficacy of the compounds was evaluated using Tumor Growth Inhibition (TGI, %) and relative tumor proliferation rate (T/C, %).
The Q value of combined medication index was calculated using the Jin formula. The criteria for judgment were as follows: a Q value of 0.85 to 1.15 indicated […] (+); a Q value>1.15 to 2.0 indicated enhancement (++); a Q value<0.85 to 0.55 indicated antagonism (−); and a Q value<0.55 indicated significant antagonism (−−). The formula was Q=Ea+b/(Ea+Eb−Ea×Eb), where Ea+b was the tumor inhibition rate of the combined medication group, and Ea and Eb were the tumor inhibition rates of the single medication groups, respectively.
Inter-group comparisons were analyzed using one-way ANOVA. […] A p value<0.05 was considered to indicate a significant difference.

Where two headings read alike, the source gives them in different places.

Turning to `FCCCN1CC[C@H](Nc2cnc(C3=C(CC(F)(F)F)CCCc4c3ccc3[nH]nc(F)c43)cn2)C1` [Compound of formula (I)], the DC50 in assay [1] (CAMA-1 cells) is 1.25 nM; in assay [1] (MCF-7 cells), 0.235 nM; in assay [1] (T-47D cells), 0.78 nM. Besides, the “T/C (%)” value in assay [2] (1 mg/kg) was 27.2%; in assay [2] (3 mg/kg), 14.8%; in assay [2] (10 mg/kg) it was 11.3%; in assay [2] (30 mg/kg), 9.7%. In addition, the “TGI (%)” value in assay [2] (1 mg/kg) is listed as 85.3%; in assay [2] (3 mg/kg), 100.9%; in assay [2] (10 mg/kg), 104.6%; in assay [2] (30 mg/kg), 106.5%. The “Tumor volume (mm^3) (Day 21)” value in assay [2] (1 mg/kg) is recorded as 340 mm^3; in assay [2] (3 mg/kg) it was 179 mm^3; in assay [2] (10 mg/kg) it was 140 mm^3; in assay [2] (30 mg/kg), 121 mm^3. Moreover, the ORR % in assay [2] (10 mg/kg) and in assay [2] (30 mg/kg) was 25% each time.
